Where two headings read alike, the source gives them in different places.
Molecular target: T1, human growth hormone secretagogue receptor (hGHS-R1a) (Homo sapiens, UniProt Q92847)
T1 construct: purchased PerkinElmer BioSignal #RBHGHSM, lot#1887; host or cells: HEK-293, stably transfected
Test: Competitive radioligand binding assay (ghrelin receptor), [125I]-ghrelin displacement
Conditions: read-out: Ki
Protocol: The competitive binding assay at the human growth hormone secretagogue receptor (hGHS-R1a) was carried out analogously to assays described in the literature.
Multiscreen Harvest plates-GF/C (Millipore, #MAHFC1H60) • 4. […] Bottom seal (Millipore, #MATAH0P00) • 7. […] Binding Buffer: 25 mM Hepes (pH 7.4), 1 mM CaCl2, 5 mM MgCl2, 2.5 mM EDTA, 0.4% BSA Assay Volumes
Competition experiments were performed in a 300 μl filtration assay format. • 1. 220 μL of membranes diluted in binding buffer • 2. 40 μL of compound diluted in binding buffer • 3. […] Compound Handling
Compounds were provided frozen on dry ice at a stock concentration of 10 mM diluted in 100% DMSO and stored at −80° C. until the day of testing. On the test day, compounds were allowed to thaw at rt O/N and then diluted in assay buffer according to the desired test concentrations.
Plates were sealed with TopSeal-A, vortexed gently and incubated at rt for 30 min. The reaction was arrested by filtering samples through Multiscreen Harvest plates (pre-soaked in 0.5% polyethyleneimine) using a Tomtec Harvester, washed 9 times with 500 μL of cold 50 mM Tris-HCl (pH 7.4, 4° C.), and then plates were air-dried in a fumehood for 30 min. A bottom seal was applied to the plates prior to the addition of 25 μL of MicroScint-0 to each well. […] Results were expressed as counts per minute (cpm).
Data were analyzed by GraphPad Prism (GraphPad Software, San Diego, Calif.) using a variable slope non-linear regression analysis.
Compound structures for Tables 3A, 3B and 3D are presented with the various groups as defined for the general structure of formula I. For Tables 3B and 3D, in all entries, m, n and p are 0; X, Z1 and Z2 are each NH. For Table 3B, R1 is H for all entries. The tethers (T) are illustrated with the bonding to X and Z2 as indicated. The compounds themselves are shown for Table 3C.
• 1. […] Key Aspects of Method • 1. […] Results

[1] = binding activity at the human ghrelin receptor, [125I]-ghrelin displacement, hGHS-R1a/HEK-293 membranes

T1 sequence (Q92847 whole entry): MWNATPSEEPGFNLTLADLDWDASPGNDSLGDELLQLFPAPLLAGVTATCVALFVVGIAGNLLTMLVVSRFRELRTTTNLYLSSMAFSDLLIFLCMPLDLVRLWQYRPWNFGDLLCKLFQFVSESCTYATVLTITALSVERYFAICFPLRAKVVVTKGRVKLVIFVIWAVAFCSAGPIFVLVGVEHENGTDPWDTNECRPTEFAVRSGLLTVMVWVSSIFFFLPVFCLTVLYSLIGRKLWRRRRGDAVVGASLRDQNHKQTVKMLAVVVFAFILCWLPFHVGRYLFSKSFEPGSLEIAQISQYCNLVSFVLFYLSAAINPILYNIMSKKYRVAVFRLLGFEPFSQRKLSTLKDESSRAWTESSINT

With CCC(C)C1NCCOc2ccccc2CCCNC(=O)C(Cc2ccccc2)NC(=O)C(C(C)CC)N(C)C1=O (single isomer, unassigned) [150b] the Ki [1] was over 10 µM.

In the case of CCC[C@@H]1NCCOc2ccccc2CCCNC(=O)[C@@H](Cc2ccccc2)NC(=O)CN(CC)C1=O [compound 5], the Ki [1] is reported as 0.1 to 10 µM.

CCCCC1NC(=O)C(CCCC)NC(=O)C(C(C)C)NCCOc2ccccc2C=CCNC1=O (stereo not shown) [compound 12] gave a Ki [1] of 0.1 to 10 µM.

Work on CC(C)CC1NCCOc2ccccc2C=CCNC(=O)C(Cc2cccc3ccccc23)NC(=O)C2(CCCC2)NC1=O (stereo not shown) [compound 22] yielded a Ki [1] of 0.01 to 0.1 µM.

Work on CCC(C)C1NCCOc2ccccc2CCCNC(=O)C(C(c2ccccc2)c2ccccc2)NC(=O)C(C)N(C)C1=O (stereo not shown) [compound 29] yielded a Ki [1] of 0.01 to 0.1 µM.

CCC(C)C1NCCOc2ccccc2CCCNC(=O)C(Cc2cscn2)NC(=O)C(C)N(C)C1=O (stereo not shown) [compound 33] gave a Ki [1] of 0.1 to 10 µM.

For CCC(C)C1NCCOc2ccccc2CCCNC(=O)C(Cc2cccs2)NC(=O)C(C)N(C)C1=O (stereo not shown) [compound 34], the Ki (Table 4, binding at human ghrelin receptor, TFA salts unless otherwise noted) was 0.01 to 0.1 µM and the Ki [1] was 0.01 to 0.1 µM.

Work on CC(C)CC1NCCOCCNC(=O)C(Cc2ccccc2)NC(=O)C2(CCCC2)NC1=O (stereo not shown) [compound 44] yielded a Ki [1] of over 10 µM.

For CCCC1NC(=O)C2(CCCC2)NC(=O)C(CC(C)C)NCCOc2ccccc2C=CCNC1=O (stereo not shown) [compound 48], the Ki [1] was over 10 µM.

CCCC1NCCOc2ccccc2CCCNC(=O)C(CO)NC(=O)CN(C)C1=O (stereo not shown) [compound 54] showed a Ki [1] of over 10 µM.

Work on CCCC1NCCOc2ccccc2CCCNC(=O)C(Cc2ccccc2)NC(=O)C(Cc2ccccc2)NC1=O (stereo not shown) [compound 65] yielded a Ki [1] of 1 to 10 µM.

CCCC1NCCOc2ccccc2CCCNC(=O)C(Cc2ccccc2)NC(=O)C(C)(C)NC1=O (stereo not shown) [compound 66] gave a Ki [1] of 0.1 to 10 µM.

Compound CCCC1NCCOc2ccccc2CCCNC(=O)C(Cc2ccccc2)NC(=O)C(CCCCN)NC1=O (stereo not shown) [compound 69] has a Ki [1] of over 10 µM.

CCCC1NCCOc2ccccc2CCCNC(=O)C(Cc2ccccc2)NC(=O)C(CCC(=O)O)NC1=O (stereo not shown) [compound 70] was tested, and the Ki [1] was over 10 µM.

With CCCC1NCCOc2ccccc2CCCNC(=O)C(Cc2ccccc2)NC(=O)C(CCC(=O)O)NC1=O (stereo not shown) [compound 71] the Ki [1] was over 10 µM.

In the case of CN1CC(=O)NC(Cc2ccccc2)C(=O)NCCCc2ccccc2OCCNC(Cc2ccccc2)C1=O (stereo not shown) [compound 75], the Ki [1] is reported as 0.1 to 10 µM.

Compound CCCC1NCc2ccccc2Sc2ccccc2CNC(=O)C(Cc2ccccc2)NC(=O)CN(C)C1=O (stereo not shown) [compound 77] has a Ki [1] of 0.1 to 10 µM.

Work on CCCC1NCC2CCC(CNC(=O)C(Cc3ccccc3)NC(=O)CN(C)C1=O)O2 (stereo not shown) [compound 78] yielded a Ki [1] of over 10 µM.

Work on CC(C)CC1NCCOc2ccccc2CCCNC(=O)C(C)NC(=O)C2(CCCC2)NC1=O (stereo not shown) [compound 87] yielded a Ki [1] of over 10 µM.

CC(C)CC1NCCC#CCCNC(=O)C(Cc2ccccc2)NC(=O)C2(CCCC2)NC1=O (stereo not shown) [compound 106] was tested, and the Ki [1] was over 10 µM.

For CC(C)CC1NCc2cccc(c2)CCNC(=O)C(Cc2ccccc2)NC(=O)C2(CCCC2)NC1=O (stereo not shown) [compound 107], the Ki [1] was over 10 µM.

CC(C)CC1NCc2ccccc2Sc2ccccc2CNC(=O)C(Cc2ccccc2)NC(=O)C2(CCCC2)NC1=O (stereo not shown) [compound 108] gave a Ki [1] of 1 to 10 µM.

CC(C)CC1NCCOc2cccnc2CCCNC(=O)C(Cc2ccccc2)NC(=O)C2(CCCC2)NC1=O (stereo not shown) [compound 109] was tested, and the Ki [1] was 1 to 10 µM.

CCOC(=O)CCC1NC(=O)C2(CCCC2)NC(=O)C(CC(C)C)NCCOc2ccccc2C=CCNC1=O (stereo not shown) [compound 116] was tested, and the Ki [1] was 1 to 10 µM.

CCC1NCCOc2ccccc2CCCNC(=O)C(Cc2ccccc2)NC(=O)C(C)N(C)C1=O (stereo not shown) [compound 117] showed a Ki [1] of 0.01 to 0.1 µM.

O=C1NCC=Cc2ccccc2OCCNC(C(c2ccccc2)c2ccccc2)C(=O)NC2(CCCC2)C(=O)NC1Cc1ccccc1 (stereo not shown) [compound 129] showed a Ki [1] of over 10 µM.

Work on O=C1NC2(CCCC2)C(=O)NC(Cc2ccccc2)C(=O)NCC=Cc2ccccc2OCCNC1Cc1ccc2ccccc2c1 (stereo not shown) [compound 131] yielded a Ki [1] of 0.1 to 10 µM.

In the case of O=C1NC2(CCCC2)C(=O)NC(Cc2ccccc2)C(=O)NCC=Cc2ccccc2OCCNC1Cc1cscn1 (stereo not shown) [compound 134], the Ki [1] is reported as 0.1 to 10 µM.

CCCC1NCCOc2ccccc2C=CCNC(=O)C(Cc2ccccc2)NC(=O)C2(CCCC2)NC1=O (stereo not shown) [compound 137] gave a Ki [1] of 0.01 to 0.1 µM.

In the case of CC(C)C1NCCOc2ccccc2C=CCNC(=O)C(Cc2ccccc2)NC(=O)C2(Cc3ccccc3C2)NC1=O (stereo not shown) [compound 142], the Ki [1] is reported as 0.1 to 10 µM.
